Calls of active or inactive are those of the source. No cut-off for these calls is given here.
What was measured:
Mus musculus [1] = assay: Compound was evaluated for narcotic analgesia activity in mice by the tail flick test; Weak up to 30 and 38% analgesia at 30 mg/kg; assay type: functional, organism-based; design: dose 30 mg/kg
Mus musculus [2] = assay: Compound was evaluated for narcotic analgesia activity in mice by mouse writhing assay at 30 mg/kg; Inactive; assay type: functional, organism-based; design: dose 30 mg/kg
Opioid receptor [3] = target: T1, Opioid receptor (Rattus norvegicus, UniProt P33533+P34975+P33535); assay type: cell membranes, Brain, Membrane
Mus musculus [4] = assay: Compound was evaluated for antagonism of tail-flick analgesia induced by 6.5 mg/kg of morphine sulfate at 10 mg/kg; Inactive; assay type: functional, organism-based
Opioid receptor [5] = target: T1, Opioid receptor; assay: Compound was evaluated for the inhibition of [3H]- naloxone binding to Opioid receptors in rat brain membrane in the presence of Na; assay type: cell membranes
Mus musculus [6] = species: Mus musculus; assay: Compound was evaluated for narcotic analgesia activity in mice by the tail flick test; assay type: functional
Mus musculus [7] = species: Mus musculus; assay: Compound was evaluated for narcotic analgesia activity in mice by hot plate test; assay type: functional
Mus musculus [8] = species: Mus musculus; assay: Compound was evaluated for narcotic analgesia activity in mice by mouse writhing assay; assay type: functional
Opioid receptor [9] = target: T1, Opioid receptor; assay: Compound was evaluated for the inhibition of [3H]- naloxone Opioid receptors binding using rat brain membrane in the absence of Na
Mus musculus [10] = assay: Compound was evaluated for antagonism of tail-flick analgesia induced by 6.5 mg/kg of morphine sulfate at 1 mg/kg; assay type: functional
Opioid receptor [11] = target: T1, Opioid receptor; assay: Compound was evaluated for the inhibition of [3H]- naloxone Opioid receptors binding using rat brain membrane in the presence of 100 mM Na
Mus musculus [12] = assay: Compound was evaluated for antagonism of tail-flick analgesia induced by 6.5 mg/kg of morphine sulfate at 0.3 mg/kg; assay type: functional

SMILES: CCC(OC(C)=O)C(CC(C)N(C)CC1CC1)(c1ccccc1)c1ccccc1 (centres undefined)
- ED50 (Mus musculus [1]): Weak activity
- ED50 (Mus musculus [2]): inactive
- Ki (Opioid receptor [3]): 2000 nM
- ED50 (Mus musculus [4]): inactive
- Ki (Opioid receptor [5]): 30000 nM

SMILES: CN1CC[C@]23c4c5ccc(O)c4O[C@H]2[C@@H](O)C=C[C@H]3[C@H]1C5.CN1CC[C@]23c4c5ccc(O)c4O[C@H]2[C@@H](O)C=C[C@H]3[C@H]1C5.O=S(=O)(O)O
- ED50 (Mus musculus [6]): 3.3 mg/kg
- ED50 (Mus musculus [7]): 3.05 mg/kg
- ED50 (Mus musculus [8]): 0.82 mg/kg

SMILES: C=CCN(C)C(C)CC(c1ccccc1)(c1ccccc1)C(CC)OC(C)=O (centres undefined)
- ED50 (Mus musculus [6]): 3.1 mg/kg
- ED50 (Mus musculus [7]): 10 mg/kg
- Ki (Opioid receptor [9]): 900 nM
- ED80 (Mus musculus [10]): 61.4 mg/kg
- ED50 (Mus musculus [8]): 2.5 mg/kg
- Ki (Opioid receptor [11]): 10000 nM
- ED80 (Mus musculus [12]): 56.9 mg/kg

SMILES: C=CCN(C)C(C)CC(c1ccccc1)(c1ccccc1)C(O)CC (centres undefined)
- Ki (Opioid receptor [3]): 150 nM
- Ki (Opioid receptor [5]): 2000 nM

SMILES: CCC(O)C(CC(C)N(C)CC1CC1)(c1ccccc1)c1ccccc1 (centres undefined)
- Ki (Opioid receptor [3]): 600 nM
- Ki (Opioid receptor [5]): 5000 nM
